Results as given in ChEMBL document CHEMBL3046959, “Influence of Absolute Configuration of Indanofan on Herbicidal Activity” (2001).
Calls of active or inactive are those of the source. The calls are words filed in the database; no cut-off is given here.

Test system: Echinochloa crus-galli
Assay: Herbicidal activity against 2.5 leaf stage of Echinochloa crus-galli (barnyard grass) after 2 weeks under greenhouse condition by pot test
Format: functional

SMILES	ED90
CCC1(CC2(c3cccc(Cl)c3)CO2)C(=O)c2ccccc2C1=O (single isomer, unassigned; (+)) [(RS)-INDANOFAN]	0.0254 KgAi/ha
CCC1(CC2(c3cccc(Cl)c3)CO2)C(=O)c2ccccc2C1=O (single isomer, unassigned; (-)) [(RS)-INDANOFAN]	0.0524 KgAi/ha
CCC1(CC2(c3cccc(Cl)c3)CO2)C(=O)c2ccccc2C1=O (racemic)	inactive
